# Where two headings read alike, the source gives them in different places.
# Key:
# Format in all cases: cell-based
# 168 GPCRs [1] = molecular target: T1, 168 GPCRs (Homo sapiens, UniProt O43614)
# T1 construct: host or cells: PathHunter cell lines
# T1 sequence (O43614 1-444): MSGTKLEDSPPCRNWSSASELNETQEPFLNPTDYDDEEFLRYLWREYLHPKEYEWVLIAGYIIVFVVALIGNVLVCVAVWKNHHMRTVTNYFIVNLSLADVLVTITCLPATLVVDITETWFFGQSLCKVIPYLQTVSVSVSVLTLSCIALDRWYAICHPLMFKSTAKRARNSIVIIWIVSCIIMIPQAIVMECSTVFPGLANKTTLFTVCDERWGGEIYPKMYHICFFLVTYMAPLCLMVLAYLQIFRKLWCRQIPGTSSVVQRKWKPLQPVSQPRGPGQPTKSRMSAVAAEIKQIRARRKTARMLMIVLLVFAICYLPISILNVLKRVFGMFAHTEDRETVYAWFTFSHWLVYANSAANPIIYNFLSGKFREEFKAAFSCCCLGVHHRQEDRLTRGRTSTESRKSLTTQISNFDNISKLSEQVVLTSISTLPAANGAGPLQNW
# 168 GPCRs [2] = molecular target: T2, 168 GPCRs (Homo sapiens, UniProt Q9HBW0)
# T2 construct: host or cells: PathHunter cell lines
# T2 sequence (Q9HBW0 whole entry): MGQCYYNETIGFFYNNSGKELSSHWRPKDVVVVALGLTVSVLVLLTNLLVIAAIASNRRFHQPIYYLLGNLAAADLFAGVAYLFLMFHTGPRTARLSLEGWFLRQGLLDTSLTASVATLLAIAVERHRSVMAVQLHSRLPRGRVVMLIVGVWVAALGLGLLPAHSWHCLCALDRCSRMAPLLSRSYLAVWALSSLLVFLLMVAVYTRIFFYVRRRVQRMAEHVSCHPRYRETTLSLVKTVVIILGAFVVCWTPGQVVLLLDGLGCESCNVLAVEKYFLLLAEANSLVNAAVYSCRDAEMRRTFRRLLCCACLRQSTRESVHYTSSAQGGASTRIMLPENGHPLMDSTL
# 168 GPCRs [3] = molecular target: T3, 168 GPCRs (Homo sapiens, UniProt P08172)
# T3 construct: host or cells: PathHunter cell lines
# T3 sequence (P08172 1-466): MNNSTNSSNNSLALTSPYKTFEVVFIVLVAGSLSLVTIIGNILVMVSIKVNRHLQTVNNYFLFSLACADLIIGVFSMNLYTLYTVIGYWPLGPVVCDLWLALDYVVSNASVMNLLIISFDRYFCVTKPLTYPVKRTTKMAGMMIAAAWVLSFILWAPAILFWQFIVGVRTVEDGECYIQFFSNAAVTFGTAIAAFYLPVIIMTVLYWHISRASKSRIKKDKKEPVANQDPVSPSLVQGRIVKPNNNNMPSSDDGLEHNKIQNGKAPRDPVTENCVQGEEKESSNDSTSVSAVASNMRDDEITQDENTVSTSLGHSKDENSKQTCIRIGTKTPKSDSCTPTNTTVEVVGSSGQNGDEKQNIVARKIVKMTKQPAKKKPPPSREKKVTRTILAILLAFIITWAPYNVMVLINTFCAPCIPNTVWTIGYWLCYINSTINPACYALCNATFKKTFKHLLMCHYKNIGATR
# 168 GPCRs [4] = molecular target: T4, 168 GPCRs (Homo sapiens, UniProt Q99500)
# T4 construct: host or cells: PathHunter cell lines
# T4 sequence (Q99500 whole entry): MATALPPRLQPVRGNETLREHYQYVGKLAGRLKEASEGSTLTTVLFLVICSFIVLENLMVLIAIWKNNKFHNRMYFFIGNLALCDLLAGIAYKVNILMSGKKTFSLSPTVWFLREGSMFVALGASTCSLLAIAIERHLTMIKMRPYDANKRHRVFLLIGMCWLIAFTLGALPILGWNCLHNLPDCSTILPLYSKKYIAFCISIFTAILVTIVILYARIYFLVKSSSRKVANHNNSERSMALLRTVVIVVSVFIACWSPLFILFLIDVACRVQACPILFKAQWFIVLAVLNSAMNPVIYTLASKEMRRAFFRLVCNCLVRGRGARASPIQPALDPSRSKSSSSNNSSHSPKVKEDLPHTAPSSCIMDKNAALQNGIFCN
# 168 GPCRs [5] = molecular target: T5, 168 GPCRs (Homo sapiens, UniProt P22888); details: LHCGR
# T5 construct: host or cells: PathHunter cell lines
# T5 sequence (P22888 27-699): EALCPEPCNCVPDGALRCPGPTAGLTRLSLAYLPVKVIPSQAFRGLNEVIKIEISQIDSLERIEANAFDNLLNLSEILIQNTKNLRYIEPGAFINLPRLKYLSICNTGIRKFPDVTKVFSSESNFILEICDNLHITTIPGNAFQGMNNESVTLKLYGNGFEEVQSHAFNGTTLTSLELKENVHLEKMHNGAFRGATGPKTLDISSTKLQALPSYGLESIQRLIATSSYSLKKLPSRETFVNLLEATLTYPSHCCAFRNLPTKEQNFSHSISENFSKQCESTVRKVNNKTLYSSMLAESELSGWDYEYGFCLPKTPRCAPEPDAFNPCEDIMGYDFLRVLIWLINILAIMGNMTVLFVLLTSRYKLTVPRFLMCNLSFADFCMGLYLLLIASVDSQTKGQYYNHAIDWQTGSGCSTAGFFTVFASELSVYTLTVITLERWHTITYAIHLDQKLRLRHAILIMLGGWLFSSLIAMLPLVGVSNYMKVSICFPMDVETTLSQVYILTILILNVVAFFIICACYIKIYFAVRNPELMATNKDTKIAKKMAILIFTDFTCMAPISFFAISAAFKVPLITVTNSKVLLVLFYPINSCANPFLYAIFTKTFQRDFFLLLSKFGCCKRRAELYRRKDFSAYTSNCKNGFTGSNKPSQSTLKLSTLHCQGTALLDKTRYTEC
# 168 GPCRs [6] = molecular target: T6, 168 GPCRs (Homo sapiens, UniProt Q13324)
# T6 construct: host or cells: PathHunter cell lines
# T6 sequence (Q13324 1-411): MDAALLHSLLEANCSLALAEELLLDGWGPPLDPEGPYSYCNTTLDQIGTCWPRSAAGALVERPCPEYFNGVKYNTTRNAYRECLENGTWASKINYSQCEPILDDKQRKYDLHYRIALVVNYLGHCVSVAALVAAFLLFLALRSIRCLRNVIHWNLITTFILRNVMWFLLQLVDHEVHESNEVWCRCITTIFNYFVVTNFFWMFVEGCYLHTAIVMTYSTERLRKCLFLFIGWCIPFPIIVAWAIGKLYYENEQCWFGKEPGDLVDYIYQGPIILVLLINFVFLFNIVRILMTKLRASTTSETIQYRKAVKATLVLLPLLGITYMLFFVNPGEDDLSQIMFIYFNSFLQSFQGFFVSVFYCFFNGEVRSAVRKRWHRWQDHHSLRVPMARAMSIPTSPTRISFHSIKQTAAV
# 168 GPCRs [7] = molecular target: T7, 168 GPCRs (Homo sapiens, UniProt P32246)
# T7 construct: host or cells: PathHunter cell lines
# T7 sequence (P32246 1-355): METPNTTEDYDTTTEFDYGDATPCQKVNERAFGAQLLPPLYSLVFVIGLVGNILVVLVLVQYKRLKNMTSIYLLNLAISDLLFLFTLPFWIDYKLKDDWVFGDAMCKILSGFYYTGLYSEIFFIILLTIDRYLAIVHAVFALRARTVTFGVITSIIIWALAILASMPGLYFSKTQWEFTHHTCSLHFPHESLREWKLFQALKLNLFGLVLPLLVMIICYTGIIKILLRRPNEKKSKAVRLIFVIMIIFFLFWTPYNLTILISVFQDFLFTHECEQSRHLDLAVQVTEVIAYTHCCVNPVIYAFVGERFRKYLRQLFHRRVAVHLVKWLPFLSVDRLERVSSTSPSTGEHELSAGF
# 168 GPCRs [8] = molecular target: T8, 168 GPCRs (Homo sapiens, UniProt Q9H1C0)
# T8 construct: host or cells: PathHunter cell lines
# T8 sequence (Q9H1C0 whole entry): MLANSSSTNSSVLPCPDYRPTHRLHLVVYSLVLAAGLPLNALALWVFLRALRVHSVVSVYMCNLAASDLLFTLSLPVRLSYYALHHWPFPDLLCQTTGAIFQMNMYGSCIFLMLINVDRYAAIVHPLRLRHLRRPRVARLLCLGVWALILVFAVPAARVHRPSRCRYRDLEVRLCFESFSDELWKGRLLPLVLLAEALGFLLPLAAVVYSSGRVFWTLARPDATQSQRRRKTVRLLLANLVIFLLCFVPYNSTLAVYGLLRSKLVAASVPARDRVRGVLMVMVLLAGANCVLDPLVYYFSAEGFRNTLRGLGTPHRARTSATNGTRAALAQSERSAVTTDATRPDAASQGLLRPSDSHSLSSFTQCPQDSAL
SMILES,"% Agonist Activity (168 GPCRs [1]; HCRTR2, 1 uM)","% Antagonist Activity (168 GPCRs [1]; HCRTR2, 1 uM)","% Agonist Activity (168 GPCRs [1]; HCRTR2, 10 uM)","% Antagonist Activity (168 GPCRs [1]; HCRTR2, 10 uM)","% Agonist Activity (168 GPCRs [2]; EDG4, 1 uM)","% Antagonist Activity (168 GPCRs [2]; EDG4, 1 uM)","% Agonist Activity (168 GPCRs [2]; EDG4, 10 uM)","% Antagonist Activity (168 GPCRs [2]; EDG4, 10 uM)","% Agonist Activity (168 GPCRs [3]; CHRM2, 1 uM)","% Antagonist Activity (168 GPCRs [3]; CHRM2, 1 uM)","% Agonist Activity (168 GPCRs [3]; CHRM2, 10 uM)","% Antagonist Activity (168 GPCRs [3]; CHRM2, 10 uM)","% Agonist Activity (168 GPCRs [4]; EDG3, 1 uM)","% Antagonist Activity (168 GPCRs [4]; EDG3, 1 uM)","% Agonist Activity (168 GPCRs [4]; EDG3, 10 uM)","% Antagonist Activity (168 GPCRs [4]; EDG3, 10 uM)",% Agonist Activity (168 GPCRs [5]; 1 uM),% Antagonist Activity (168 GPCRs [5]; 1 uM),% Agonist Activity (168 GPCRs [5]; 10 uM),% Antagonist Activity (168 GPCRs [5]; 10 uM),also measured
CNC(C)C(=O)c1ccc2c(c1)OCO2 (stereo not shown) [methylone],0.2%,6.4%,0.2%,2.4%,-2.2%,-10.2%,-2.1%,-21%,-0.2%,-18.5%,0.2%,-7.4%,-9.4%,25.8%,-8.6%,13.6%,0.4%,13.8%,0.4%,11.2%,"% Agonist Activity (168 GPCRs [6]; CRHR2, 1 uM): 0.9%; % Antagonist Activity (168 GPCRs [6]; CRHR2, 1 uM): -2%; % Agonist Activity (168 GPCRs [6]; CRHR2, 10 uM): 0.9%; % Antagonist Activity (168 GPCRs [6]; CRHR2, 10 uM): -0.3%; % Agonist Activity (168 GPCRs [7]; CCR1, 1 uM): -2.6%; % Antagonist Activity (168 GPCRs [7]; CCR1, 1 uM): -8.1%; % Agonist Activity (168 GPCRs [7]; CCR1, 10 uM): 3.6%; % Antagonist Activity (168 GPCRs [7]; CCR1, 10 uM): -16.6%; % Agonist Activity (168 GPCRs [8]; GPR92, 1 uM): -1.6%; % Antagonist Activity (168 GPCRs [8]; GPR92, 1 uM): -8%; % Agonist Activity (168 GPCRs [8]; GPR92, 10 uM): -3.5%; % Antagonist Activity (168 GPCRs [8]; GPR92, 10 uM): 5.8%"
"CNC(C)Cc1ccc2c(c1)OCO2 (stereo not shown) [MDMA, 3,4-Methylenedioxy methamphetamine, reference compound]",-0.3%,5.9%,-0.1%,-3.5%,1.5%,7.5%,2.2%,10.2%,0.9%,-1%,1.4%,10.5%,-1.7%,8.8%,-1.1%,11%,2.4%,1.2%,0.9%,-1%,"% Agonist Activity (168 GPCRs [6]; CRHR2, 1 uM): -0.2%; % Antagonist Activity (168 GPCRs [6]; CRHR2, 1 uM): 4.3%; % Agonist Activity (168 GPCRs [6]; CRHR2, 10 uM): -0.1%; % Antagonist Activity (168 GPCRs [6]; CRHR2, 10 uM): 5.7%; % Agonist Activity (168 GPCRs [7]; CCR1, 1 uM): 13.6%; % Antagonist Activity (168 GPCRs [7]; CCR1, 1 uM): -13%; % Agonist Activity (168 GPCRs [7]; CCR1, 10 uM): 6.2%; % Antagonist Activity (168 GPCRs [7]; CCR1, 10 uM): -7.6%; % Agonist Activity (168 GPCRs [8]; GPR92, 1 uM): -4%; % Antagonist Activity (168 GPCRs [8]; GPR92, 1 uM): 6.8%; % Agonist Activity (168 GPCRs [8]; GPR92, 10 uM): -2.2%; % Antagonist Activity (168 GPCRs [8]; GPR92, 10 uM): 8%"

# From article PMC10882719 (Frontiers in Neuroscience, 2024)
